Experimental data reported in ChEMBL document CHEMBL1127639, “Structural features important for sigma 1 receptor binding” (J Med Chem, 1994).
pKi: −log10 of the molar value.

Experiment: Binding affinity against [3H]-3-PPP labelled sigma sites

pKi: 8.13
Compound: CN(CCc1ccccc1)CCN1CCCC1
